In patent US20110039721A1, “METHOD FOR PREDICTION ABOUT CARCINOGENICITY OF SUBSTANCE IN RODENT” (Chemicals Evaluation and Research Institute, priority 2007, published 2011):

What was measured:
rodent = settings: in vivo; cited from earlier work
[1] = system: mRNA expressed from the genes (A) to (D) in rat liver; assay: Behavior of genes (mRNA expression level, oligo-DNA microarray) in rat liver after 28-day oral administration; assay type: in vivo; settings: rat liver, oral once daily 28 days; for Behavior of gene caused by administration of chemical substance, Gene No. 4846 / Behavior of gene caused by administration of chemical substance, Gene No. 4218 / Behavior of gene caused by administration of chemical substance, Gene No. 2026 / Behavior of gene caused by administration of chemical substance, Gene No. 6182 / Behavior of gene caused by administration of chemical substance, Gene No. 5600: (A); for Behavior of gene caused by administration of chemical substance, Gene No. 4846: Unigene Rn.144554, defined direction +; for Behavior of gene caused by administration of chemical substance, Gene No. 4218: Unigene Rn.167075, defined direction +, significant = 1.5 times or more or 1/1.5 or less of control; for Behavior of gene caused by administration of chemical substance, Gene No. 2026: Unigene Rn.167075, defined direction −; for Behavior of gene caused by administration of chemical substance, Gene No. 6182: Unigene Rn.5834, defined direction +; for Behavior of gene caused by administration of chemical substance, Gene No. 5600: Unigene Rn.9836, defined direction +; for Behavior of gene caused by administration of chemical substance, Gene No. 1494 / Behavior of gene caused by administration of chemical substance, Gene No. 2045 / Behavior of gene caused by administration of chemical substance, Gene No. 2203: (B); for Behavior of gene caused by administration of chemical substance, Gene No. 1494: Unigene Rn.1430, defined direction −; for Behavior of gene caused by administration of chemical substance, Gene No. 2045: Unigene Rn.19329, defined direction +; for Behavior of gene caused by administration of chemical substance, Gene No. 2203: Unigene Rn.21240, defined direction +; for Behavior of gene caused by administration of chemical substance, Gene No. 533 / Behavior of gene caused by administration of chemical substance, Gene No. 725 / Behavior of gene caused by administration of chemical substance, Gene No. 1163 / Behavior of gene caused by administration of chemical substance, Gene No. 4973 / Behavior of gene caused by administration of chemical substance, Gene No. 4095 / Behavior of gene caused by administration of chemical substance, Gene No. 1334 / Behavior of gene caused by administration of chemical substance, Gene No. 6620 / Behavior of gene caused by administration of chemical substance, Gene No. 6303 / Behavior of gene caused by administration of chemical substance, Gene No. 5878 / Behavior of gene caused by administration of chemical substance, Gene No. 1131 / Behavior of gene caused by administration of chemical substance, Gene No. 1562 / Behavior of gene caused by administration of chemical substance, Gene No. 1741 / Behavior of gene caused by administration of chemical substance, Gene No. 893 / Behavior of gene caused by administration of chemical substance, Gene No. 6026 / Behavior of gene caused by administration of chemical substance, Gene No. 154 / Behavior of gene caused by administration of chemical substance, Gene No. 1993 / Behavior of gene caused by administration of chemical substance, Gene No. 813 / Behavior of gene caused by administration of chemical substance, Gene No. 2494 / Behavior of gene caused by administration of chemical substance, Gene No. 2546 / Behavior of gene caused by administration of chemical substance, Gene No. 3776 / Behavior of gene caused by administration of chemical substance, Gene No. 3929 / Behavior of gene caused by administration of chemical substance, Gene No. 1119 / Behavior of gene caused by administration of chemical substance, Gene No. 6742 / Behavior of gene caused by administration of chemical substance, Gene No. 5634: (C); for Behavior of gene caused by administration of chemical substance, Gene No. 533: Unigene Rn.106184, defined direction +; for Behavior of gene caused by administration of chemical substance, Gene No. 725: Unigene Rn.108075, defined direction −; for Behavior of gene caused by administration of chemical substance, Gene No. 1163: Unigene Rn.11766, defined direction +; for Behavior of gene caused by administration of chemical substance, Gene No. 4973: Unigene Rn.118529, defined direction −; for Behavior of gene caused by administration of chemical substance, Gene No. 4095: Unigene Rn.119024, defined direction −; for Behavior of gene caused by administration of chemical substance, Gene No. 1334 / Behavior of gene caused by administration of chemical substance, Gene No. 6620: Unigene Rn.120914, defined direction +; for Behavior of gene caused by administration of chemical substance, Gene No. 6303: Unigene Rn.123063, defined direction −; for Behavior of gene caused by administration of chemical substance, Gene No. 5878: Unigene Rn.143213, defined direction −; for Behavior of gene caused by administration of chemical substance, Gene No. 1131: Unigene Rn.144946, defined direction −; for Behavior of gene caused by administration of chemical substance, Gene No. 1562: Unigene Rn.14744, defined direction −; for Behavior of gene caused by administration of chemical substance, Gene No. 1741: Unigene Rn.1647, defined direction −; for Behavior of gene caused by administration of chemical substance, Gene No. 893: Unigene Rn.164817, defined direction +; for Behavior of gene caused by administration of chemical substance, Gene No. 6026: Unigene Rn.167685, defined direction −; for Behavior of gene caused by administration of chemical substance, Gene No. 154: Unigene Rn.185941, defined direction −; for Behavior of gene caused by administration of chemical substance, Gene No. 1993: Unigene Rn.18728, defined direction −; for Behavior of gene caused by administration of chemical substance, Gene No. 813: Unigene Rn.201760, defined direction +; for Behavior of gene caused by administration of chemical substance, Gene No. 2494: Unigene Rn.23969, defined direction +; for Behavior of gene caused by administration of chemical substance, Gene No. 2546: Unigene Rn.24561, defined direction −; for Behavior of gene caused by administration of chemical substance, Gene No. 3776: Unigene Rn.43232, defined direction −; for Behavior of gene caused by administration of chemical substance, Gene No. 3929: Unigene Rn.4620, defined direction +; for Behavior of gene caused by administration of chemical substance, Gene No. 1119: Unigene Rn.9757, defined direction +; for Behavior of gene caused by administration of chemical substance, Gene No. 6742: Unigene Rn.9779, defined direction +; for Behavior of gene caused by administration of chemical substance, Gene No. 5634: Unigene Rn.9862, defined direction −; for Behavior of gene caused by administration of chemical substance, Gene No. 5726: (D), Unigene Rn.9939, defined direction −
In short: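 Groups of four male F344 SPF rats aged 5 weeks are gavaged once a day for 28 days with test chemical in solvent or with solvent alone at equal volume. Total RNA comes from liver taken on day 28. Fold change of 1.5 or 1/1.5 versus control, directionally consistent, defines significance.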

liver = settings: in vivo; cited from earlier work

Row | Compound | Carcinogenicity (rodent) | Behavior of gene caused by administration of chemical substance, Gene No. 4846 [1] | Behavior of gene caused by administration of chemical substance, Gene No. 4218 [1] | Behavior of gene caused by administration of chemical substance, Gene No. 2026 [1] | Behavior of gene caused by administration of chemical substance, Gene No. 6182 [1] | Behavior of gene caused by administration of chemical substance, Gene No. 5600 [1] | Behavior of gene caused by administration of chemical substance, Gene No. 1494 [1] | Behavior of gene caused by administration of chemical substance, Gene No. 2045 [1] | Behavior of gene caused by administration of chemical substance, Gene No. 2203 [1] | Behavior of gene caused by administration of chemical substance, Gene No. 533 [1] | Behavior of gene caused by administration of chemical substance, Gene No. 725 [1] | Behavior of gene caused by administration of chemical substance, Gene No. 1163 [1] | Behavior of gene caused by administration of chemical substance, Gene No. 4973 [1] | Behavior of gene caused by administration of chemical substance, Gene No. 4095 [1] | Behavior of gene caused by administration of chemical substance, Gene No. 1334 [1] | Behavior of gene caused by administration of chemical substance, Gene No. 6620 [1] | Behavior of gene caused by administration of chemical substance, Gene No. 6303 [1] | Behavior of gene caused by administration of chemical substance, Gene No. 5878 [1] | Behavior of gene caused by administration of chemical substance, Gene No. 1131 [1] | Behavior of gene caused by administration of chemical substance, Gene No. 1562 [1] | other results
1 | O=NN1CCCCC1 [TS042, N-Nitrosopiperidine] | C+ | + | + | + | + | + | + | − | − | + | − | − | − | − | − | − | + | − | + | + | Behavior of gene caused by administration of chemical substance, Gene No. 1741 [1]: −; Behavior of gene caused by administration of chemical substance, Gene No. 893 [1]: −; Behavior of gene caused by administration of chemical substance, Gene No. 6026 [1]: −; Behavior of gene caused by administration of chemical substance, Gene No. 154 [1]: −; Behavior of gene caused by administration of chemical substance, Gene No. 1993 [1]: +; Behavior of gene caused by administration of chemical substance, Gene No. 813 [1]: +; Behavior of gene caused by administration of chemical substance, Gene No. 2494 [1]: −; Behavior of gene caused by administration of chemical substance, Gene No. 2546 [1]: −; Behavior of gene caused by administration of chemical substance, Gene No. 3776 [1]: −; Behavior of gene caused by administration of chemical substance, Gene No. 3929 [1]: −; Behavior of gene caused by administration of chemical substance, Gene No. 1119 [1]: −; Behavior of gene caused by administration of chemical substance, Gene No. 6742 [1]: −; Behavior of gene caused by administration of chemical substance, Gene No. 5634 [1]: −; Behavior of gene caused by administration of chemical substance, Gene No. 5726 [1]: +; Liver carcinogenicity (liver): Cr+
2 | CC(=O)Nc1ccc2c(c1)Cc1ccccc1-2 [TS043, 2-Acetylaminofluorene] | C+ | + | + | + | + | + | − | − | − | − | + | + | + | + | − | − | + | − | − | + | Behavior of gene caused by administration of chemical substance, Gene No. 1741 [1]: −; Behavior of gene caused by administration of chemical substance, Gene No. 893 [1]: +; Behavior of gene caused by administration of chemical substance, Gene No. 6026 [1]: −; Behavior of gene caused by administration of chemical substance, Gene No. 154 [1]: −; Behavior of gene caused by administration of chemical substance, Gene No. 1993 [1]: +; Behavior of gene caused by administration of chemical substance, Gene No. 813 [1]: −; Behavior of gene caused by administration of chemical substance, Gene No. 2494 [1]: −; Behavior of gene caused by administration of chemical substance, Gene No. 2546 [1]: −; Behavior of gene caused by administration of chemical substance, Gene No. 3776 [1]: −; Behavior of gene caused by administration of chemical substance, Gene No. 3929 [1]: −; Behavior of gene caused by administration of chemical substance, Gene No. 1119 [1]: −; Behavior of gene caused by administration of chemical substance, Gene No. 6742 [1]: −; Behavior of gene caused by administration of chemical substance, Gene No. 5634 [1]: −; Behavior of gene caused by administration of chemical substance, Gene No. 5726 [1]: −; Liver carcinogenicity (liver): Cr+
